Key:
Details in all cases: in vivo
[1] = system: Rattus norvegicus; assay: Concentration accumulated in ovary at 0.5 hr after intravenous administration in rat; format: ADME, organism-based, Female gonad
[2] = system: Rattus norvegicus; assay: Concentration accumulated in thyroid at 24 hr r after intravenous administration in rat; format: ADME, organism-based, Thyroid gland
[3] = system: Rattus norvegicus; assay: Concentration accumulated in adrenal cortex at 24 hr r after intravenous administration in rat; format: ADME, organism-based
[4] = system: Rattus norvegicus; assay: Concentration accumulated in liver at 24 hr r after intravenous administration in rat; format: ADME, organism-based
[5] = system: Rattus norvegicus; assay: Concentration accumulated in ovary at 24 hr r after intravenous administration in rat; format: ADME, organism-based, Female gonad
[6] = system: Rattus norvegicus; assay: Concentration accumulated in blood at 0.5 hr after intravenous administration in rat; format: ADME, organism-based
[7] = system: Rattus norvegicus; assay: Concentration accumulated in thyroid at 0.5 hr after intravenous administration in rat; format: ADME, organism-based, Thyroid gland
[8] = system: Rattus norvegicus; assay: Concentration accumulated in adrenal cortex at 0.5 hr after intravenous administration in rat; format: ADME, organism-based
[9] = system: Rattus norvegicus; assay: Concentration accumulated in liver at 0.5 hr after intravenous administration in rat; format: ADME, organism-based
[10] = system: Rattus norvegicus; assay: Concentration accumulated in blood at 24 hr r after intravenous administration in rat; format: ADME, organism-based
[11] = system: Rattus norvegicus; assay: Concentration accumulated in kidney at 24 hr r after intravenous administration in rat; format: ADME, organism-based
[12] = system: Rattus norvegicus; assay: Concentration accumulated in kidney at 0.5 hr after intravenous administration in rat; format: ADME, organism-based

SMILES | Dose/g [1] | Dose/g [2] | Dose/g [3] | Dose/g [4] | Dose/g [5] | Dose/g [6] | Dose/g [7] | Dose/g [8] | Dose/g [9] | Dose/g [10] | Dose/g [11] | Dose/g [12]
C[C@H](OC(=O)c1ccccc1I)C1CCC2C3CC=C4CC(O)CCC4(C)C3CCC21C (stereo not given in full) | 1.49% | 511.17% | 0.31% | 0.2% | 0.26% | 0.59% | 4.96% | 10.04% | 3.92% | 0.05% | 0.11% | 1.29%
C[C@H](NC(=O)c1ccccc1I)C1CCC2C3CC=C4CC(O)CCC4(C)C3CCC21C (stereo not given in full) | 0.58% | 51.14% | 0.1% | 0.06% | 0.09% | 0.1% | 2.2% | 2.49% | 3.85% | < 0.01% | 0.01% | 0.41%
C[C@@H](OC(=O)c1ccccc1I)C1CCC2C3CC=C4CC(O)CCC4(C)C3CCC21C (stereo not given in full) | 1.67% | 52.36% | 1.23% | 0.11% | 0.26% | 0.25% | 2.93% | 6.83% | 6.04% | 0.02% | 0.05% | 1.59%
C[C@@H](NC(=O)c1ccccc1I)C1CCC2C3CC=C4CC(O)CCC4(C)C3CCC21C (stereo not given in full) | 0.53% | 24.65% | 0.55% | 0.22% | 0.07% | 0.08% | 1.4% | 1.66% | 1.28% | < 0.01% | 0.02% | 0.47%
CC(C)CCCC(C)C1CCC2C3CC(CI)C4=C(CCC(O)C4)C3CCC12C (stereo not given) | 4.1% | 111.3% | 116.21% | 1.34% | 33.1% | 2.35% | 1.37% | 17.89% | 4.57% | 0.87% | 0.76% | 0.45%

Reference: ChEMBL document CHEMBL1124419, “Potential tumor- or organ-imaging agents. 29. Radioiodinated esters and amides of 20-hydroxy- and 20-aminopregn-5-en-3 beta-ols” (J Med Chem, 1989)
